Measured values: patent US6613356B1, “Weight loss medication and method” (priority 2000, dated 2003)
Like-named read-outs stand apart in the source and are kept apart here.

Experiments:
mouse colons = conditions: cited from earlier work
[1] = Experimental administration of potassium butyrate capsules as a weight loss agent to two human volunteers; format: in vivo; set-up: triglyceride values / total cholesterol / HDL / LDL / triglycerides: unit not given here
Description: Based on the inherent safety of butyrate as discussed in medical literature, experimental administration of butyrate was begun on two volunteers. Tests on the two human volunteers has produced weight loss of 17 pounds and 40 pounds respectively at a dosage of 3-5 capsules, once or twice daily (volunteer #1); or 3-5 capsules three times per day (volunteer #2). Each capsule contained approximately 140 mg of potassium butyrate at the start of the test period, and 231 mg each at the end of the test period. The butyrate capsules typically contain 231 to 287 mg of potassium butyrate and 345 to 431 mg of corn starch and 345 to 431 mg of sodium bicarbonate in a 920 to 1 100 mg Size 0 Lilly gelatin capsule. The potassium butyrate is prepared by oxidizing 1-butanol with potassium permanganate in aqueous solution at between 180° F. and 212° F. This reaction produces manganese dioxide and butyric acid and KOH. The manganese dioxide is quite insoluble and is filtered out, and the butyric acid is then neutralized by the potassium hydroxide formed, thus forming the salt, potassium butyrate. The following reactions are thought to produce the potassium butyrate:
The inventor, after having been convinced by the medical literature of the inherent safety of butyrate in humans, began experimental administration of potassium butyrate as a weight loss agent to two volunteers, one of which was […]. The starting dose was 23 mg twice a day, in capsules containing 230 mg of a 10% mixture each. Volunteer #1's starting weight then was 185 lb measured in the morning, fasting. Volunteer #1's height was […] making their body mass index (BMI) […]. Note this is in the range regarded as being overweight (25-30). The dose was increased to 66 mg twice a day a couple of days later, and after 20 days the weight declined to 181 lb. The dose was increased to 130 mg twice a day before meals after about a month. Weight after 2 months was 174 lb. During the 4th through 7th month, the dose averaged 280 mg twice a day on about half the days, skipping it on alternate days. Weight reached its lowest point after about 7 months: 168 lb, BMI 24.5, which is the upper range of normal. After that, the dose has been an average of […] once a day, taken before meals, but only used on alternate days. The weight on this low dose rose to 174 lb and has stayed within 4 lb of that for the last 5 months.
Another test subject, volunteer #2, started on potassium butyrate when weight was 256 lb, height 5′3″, BMI 40. Prior to this use of butyrate, subject's most successful weight losses was 50 lb over a 3 month period while on Optifast program, a 400 calorie a day supplemented fasting program.
The starting dose of butyrate was 40 mg three times a day. It was rapidly escalated to 560 mg before each meal and continued on that dose for about 6 months, when the dose was increased to 800 mg three times a day. Weight after 6 months was 222 lbs. The same dose was continued from that point for another 6 months. Then their weight was 220. Dose was then increased to 1150 mg three times a day for another 8 days. Then their weight was 216 after about a year, for a total of 40 lbs of weight loss during this slightly more than one year duration clinical trial. BMI declined to 35.

[2] = 10 week experiment in adolescent common white mice fed K butyrate in chocolate; format: in vivo
Description: Two mouse experiments involved 8 adolescent common white mice, still in the growth period. Four were assigned to the butyrate group and were fed K butyrate mixed in pieces of chocolate 300-400 mg size twice a day, and the other four mice were assigned to the non-butyrate group and were fed the same size pieces of plain chocolate. Both groups of mice were otherwise cared for in an identical fashion and fed twice as many food pellets as recommended. The dose of butyrate initially chosen was 3.47 mg per dose scaled down from the human dose according to the ratio of body surface area of mouse compared to man. This was estimated at 1:250.

[3] = cited from earlier work
[4] = About 9 week (67 day) test in adult mice with butyrate added to food; format: in vivo; conditions: 67 day test period
Description: Another test on adult mice was run for about 9 weeks. Butyrate was mixed with chocolate and/or cornstarch and the mixture was added to the mice's food (a commercial guinea pig food—Aytec Supreme Daily Blend Guinea Pig Diet). The butyrate dose started at 11.1 mg per mouse twice a day at the beginning of the study and ended up at 58 mg per mouse twice a day at the end of the study. The non-butyrate-fed mice had the same chocolate and/or cornstarch added to their food in equal weight compared to the butyrate-fed mice. The four butyrate mice gained an average of 50 mg each over the 67 day test period, and the four non-butyrate mice gained an average of 325 mg each over the 67 day test period. While no weight loss occurred in either group the butyrate mice gained less weight, by a ratio of about 6.5 to 1.

For `CCCC(=O)O` [alkaline butyrate ion, reference compound], the colitis (mouse colons; mouse, in vivo) is listed as “did not cause colitis”.

In the case of `CCCC(=O)O` [butyric acid], the colitis (mouse colons; 1% concentration instilled into mouse colons) is given as “caused colitis”.

For `CCCC(=O)[O-].[K+]` [potassium butyrate], the adverse effects ([1]; volunteer #1) was “No adverse effects occurred except for occasional transient epigastric aching soon after a dose”, the “cholesterol and cholesterol ratios” value ([1]; volunteer #1) was “not changed significantly” and the “halitosis or foul eructation” value ([1]; volunteer #1) was “No halitosis or foul eructation occurred”. The “liver enzymes and liver function tests” value ([1]; volunteer #1) was “remained normal”, the weight loss ([1]; volunteer #1, 3-5 capsules once or twice daily) was 17 pounds and the weight ([1]; volunteer #1, after 2 months, 130 mg twice a day before meals, starting weight 185 lb) was 174 lb. For the same compound, the weight ([1]; volunteer #1, after 20 days, 23 then 66 mg twice a day, starting weight 185 lb) was 181 lb, the triglyceride values ([1]; volunteer #1, after about 6 months, initially 310) was 230 and the “weight, lowest point” value ([1]; volunteer #1, after about 7 months, 280 mg twice a day on about half the days, starting weight 185 lb) was 168 lb. For the same compound, the “body mass index (BMI)” value ([1]; volunteer #1, after about 7 months, starting BMI 27) was 24.5, the “carpal tunnel syndrome symptoms” value ([1]; volunteer #1, after about 14 months) was “improved markedly” and the blood pressure ([1]; volunteer #1, after about 14 months, hypertension before required 4 mg per day Cardura) was “normal without medication”. The “blood counts and survey chemistries (SMA-18 or comprehensive chemistry)” value ([1]; volunteer #1, checked periodically) was “normal”, the weight ([1]; volunteer #1, low dose, average 660 mg once a day on alternate days, stayed within 4 lb for the last 5 months) was 174 lb and the HDL cholesterol ([1]; volunteer #1, over 4 months, from 48) was 47. The total cholesterol ([1]; volunteer #1, over 4 months, from 235) was 236, the fatigue ([1]; volunteer #2) was “lessened” and the “feeling of general well being” value ([1]; volunteer #2) was “improved”. For the same compound, the weight loss ([1]; volunteer #2, 3-5 capsules three times per day) was 40 pounds, the “exercise tolerance on treadmill exercise stress tests” value ([1]; volunteer #2, after 1 year's use vs previous test) was “almost doubled” and the “time able to walk on treadmill in stress test” value ([1]; volunteer #2, after 1 year's use, previous test 4 minutes) was 7 min. For the same compound, the weight ([1]; volunteer #2, after 6 months, 560 mg before each meal, starting weight 256 lb) was 222 lbs, the weight ([1]; volunteer #2, after about a year, 1150 mg three times a day for another 8 days, starting weight 256 lb) was 216 lbs and the BMI ([1]; volunteer #2, after about a year, starting BMI 40) was 35. The weight ([1]; volunteer #2, after another 6 months at 800 mg three times a day, starting weight 256 lb) was 220 lbs, the total cholesterol ([1]; volunteer #2, dropped from 266) was 238 and the “abnormalities on periodic comprehensive chemistry blood tests and blood counts” value ([1]; volunteer #2, during butyrate use) was “no abnormalities have appeared”. It also gave an HDL ([1]; volunteer #2, from 56) of 52, an LDL ([1]; volunteer #2, from 160) of 150 and a triglycerides ([1]; volunteer #2, from 269) of 179. The total weight loss ([1]; volunteer #2, slightly more than one year) was 40 lbs, the tolerability ([2]; adolescent mice, 3.47 mg per dose twice a day) was “well tolerated” and the “weight gain less than non-butyrate mice” value ([2]; adolescent mice, 10 week experiment) was “about 10%”. For the same compound, the “average weight gain per mouse” value ([2]; adolescent mice, 10 week experiment, 3.47 then 11.5 mg twice a day, non-butyrate mice 18.6 grams) was 17 grams, the “difference in behavior, activity or agility vs non-butyrate group” value ([2]; mice) was “no difference” and the “half-life in the serum” value [3] was 2 min. The “average weight gain per mouse” value ([4]; 11.1 to 58 mg per mouse twice a day, non-butyrate mice 325 mg) was 50 mg and the “ratio of weight gain, non-butyrate to butyrate mice” value ([4]; ratio to 1) was “about 6.5”.
